Target: T1, CFTR (Homo sapiens, UniProt P13569, DEL508-508)
T1 construct: endogenous in cells; host or cells: primary human bronchial epithelial cells from CF subjects (F508del/MF-HBE), differentiated at air-liquid interface
Assay: HBE2 assay: Ussing chamber assay of CFTR-mediated short-circuit currents
Assay type: cell-based
Settings: F508del/MF-HBE cells, with 44 nM potentiator, 18-24 hours, 20% human serum; for Emax: read-out: HBE2 Max activity (%)
In short: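 Corrector activity read as CFTR-dependent ISC (μA/cm^2): peak forskolin current minus post-inhibitor steady state. Measured at 37 °C, voltage clamp at 0 mV, on F508del/MF-HBE epithelia grown >14 days air-liquid interface in Ussing chambers.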

T1 sequence (P13569 with tags, fused parts or gaps DEL508-508): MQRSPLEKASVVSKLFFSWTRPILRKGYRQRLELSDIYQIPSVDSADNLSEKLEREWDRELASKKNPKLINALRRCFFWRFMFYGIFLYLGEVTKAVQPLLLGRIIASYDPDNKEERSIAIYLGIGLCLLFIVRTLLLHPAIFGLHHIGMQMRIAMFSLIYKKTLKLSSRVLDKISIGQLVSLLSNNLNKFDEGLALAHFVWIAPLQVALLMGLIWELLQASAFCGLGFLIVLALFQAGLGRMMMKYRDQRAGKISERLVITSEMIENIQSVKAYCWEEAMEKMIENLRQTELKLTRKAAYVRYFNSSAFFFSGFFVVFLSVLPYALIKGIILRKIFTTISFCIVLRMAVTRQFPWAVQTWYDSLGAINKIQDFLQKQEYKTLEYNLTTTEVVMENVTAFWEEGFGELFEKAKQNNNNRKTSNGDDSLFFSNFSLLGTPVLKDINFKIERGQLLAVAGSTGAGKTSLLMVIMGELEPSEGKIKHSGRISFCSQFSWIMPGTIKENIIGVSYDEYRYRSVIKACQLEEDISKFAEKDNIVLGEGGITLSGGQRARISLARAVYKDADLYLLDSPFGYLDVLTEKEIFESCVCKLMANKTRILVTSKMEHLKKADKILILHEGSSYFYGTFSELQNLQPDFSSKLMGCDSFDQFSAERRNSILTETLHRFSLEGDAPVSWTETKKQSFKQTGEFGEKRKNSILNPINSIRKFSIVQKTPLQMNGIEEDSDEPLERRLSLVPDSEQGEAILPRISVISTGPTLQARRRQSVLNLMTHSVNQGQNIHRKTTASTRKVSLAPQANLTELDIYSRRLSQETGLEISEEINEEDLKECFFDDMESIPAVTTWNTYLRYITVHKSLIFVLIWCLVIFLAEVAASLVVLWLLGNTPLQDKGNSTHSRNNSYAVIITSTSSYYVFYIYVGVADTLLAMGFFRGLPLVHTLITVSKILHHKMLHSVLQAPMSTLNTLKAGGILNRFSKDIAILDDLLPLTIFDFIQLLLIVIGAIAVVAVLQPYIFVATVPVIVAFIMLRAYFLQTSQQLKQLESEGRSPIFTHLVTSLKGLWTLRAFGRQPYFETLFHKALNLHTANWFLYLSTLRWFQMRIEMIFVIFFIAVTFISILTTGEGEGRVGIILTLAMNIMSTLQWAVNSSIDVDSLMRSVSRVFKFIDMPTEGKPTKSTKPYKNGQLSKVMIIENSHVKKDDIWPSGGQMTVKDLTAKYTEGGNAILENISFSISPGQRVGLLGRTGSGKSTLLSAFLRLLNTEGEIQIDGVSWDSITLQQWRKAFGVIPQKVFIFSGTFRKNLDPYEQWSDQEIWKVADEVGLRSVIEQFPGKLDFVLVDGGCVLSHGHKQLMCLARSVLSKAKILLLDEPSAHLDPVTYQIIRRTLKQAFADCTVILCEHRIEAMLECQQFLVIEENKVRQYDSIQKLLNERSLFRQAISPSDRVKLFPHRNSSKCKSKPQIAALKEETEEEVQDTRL

Compound	HBE2 Activity at 3 μM (%) (3 μM corrector)	further results
Cc1cccc(C)c1-c1cc2nc(n1)NS(=O)(=O)c1cccc(c1)C(=O)N(Cc1ncc(N3CCC(C)(C)CC3)cn1)[C@H](CCC1CC1)CO2 [Compound 1311, (11R)-11-(2-Cyclopropylethyl)-6-(2,6-dimethylphenyl)-12-[[5-(4,4-dimethyl-1-piperidyl)pyrimidin-2-yl]methyl]-2,2-dioxo-9-oxa-2^6-thia-3,5,12,19-tetrazatricyclo[12.3.1.14,8]nonadeca-1(18),4(19),5,7,14,16-hexaen-13-one]		HBE2 Activity at 3 μM (%) (3 μM): +++ (+++ is >60+)
Cc1cccc(C)c1-c1cc2nc(n1)NS(=O)(=O)c1cccc(c1)C(=O)N(Cc1coc(N(C)C3CCC3)n1)[C@H](CC(C)(C)C)CO2 [Compound 1318, (11R)-12-[[2-[Cyclobutyl(methyl)amino]oxazol-4-yl]methyl]-6-(2,6-dimethylphenyl)-11-(2,2-dimethylpropyl)-2,2-dioxo-9-oxa-2λ^6-thia-3,5,12,19-tetrazatricyclo[12.3.1.14,8]nonadeca-1(18),4(19),5,7,14,16-hexaen-13-one]		HBE2 Activity at 3 μM (%) (3 μM): +++ (+++ is >60+)
Cc1cccc(C)c1-c1cc2nc(n1)NS(=O)(=O)c1cccc(c1)C(=O)N(Cc1cnc(C)c(N(C)CC(C)C)n1)[C@H](CC(C)(C)C)CO2 [Compound 1322, (11R)-6-(2,6-Dimethylphenyl)-11-(2,2-dimethylpropyl)-12-[[6-[isobutyl(methyl)amino]-5-methyl-pyrazin-2-yl]methyl]-2,2-dioxo-9-oxa-2λ^6-thia-3,5,12,19-tetrazatricyclo[12.3.1.14,8]nonadeca-1(18),4(19),5,7,14,16-hexaen-13-one]	+++ (+++ is >60+)	
Cc1cccc(C)c1-c1cc2nc(n1)NS(=O)(=O)c1cccc(c1)C(=O)N(Cc1cncc(N(C)C3CCC3)n1)[C@@H]1CN(C3CC4(CCCC4)C3)C[C@H]1O2 [Compound 1323, (3R,7R)-8-[[6-[Cyclobutyl(methyl)amino]pyrazin-2-yl]methyl]-19-(2,6-dimethylphenyl)-15,15-dioxo-5-spiro[3.4]octan-2-yl-2-oxa-15λ^6-thia-5,8,16,18,21-pentazatetracyclo[15.3.1.110,14.03,7]docosa-1(20),10,12,14(22),17(21),18-hexaen-9-one]	++ (++ is 30-60%)	
Cc1cccc(C)c1-c1cc2nc(n1)NS(=O)(=O)c1cccc(c1)C(=O)N(Cc1cncc(N(C)C3CCC3)n1)[C@H](COC(C)C)CO2 [Compound 1324, (11R)-12-[[6-[Cyclobutyl(methyl)amino]pyrazin-2-yl]methyl]-6-(2,6-dimethylphenyl)-11-(isopropoxymethyl)-2,2-dioxo-9-oxa-2λ^6-thia-3,5,12,19-tetrazatricyclo[12.3.1.14,8]nonadeca-1(18),4(19),5,7,14,16-hexaen-13-one]	+++ (+++ is >60+)	
CCC(C)(C)C[C@@H]1COc2cc(-c3c(C)cccc3C)nc(n2)NS(=O)(=O)c2cccc(c2)C(=O)N1Cc1cncc(N(C)C2CCC2)n1 [Compound 1329, 12-[[6-[cyclobutyl(methyl)amino]pyrazin-2-yl]methyl]-11-(2,2-dimethylbutyl)-6-(2,6-dimethylphenyl)-2,2-dioxo-9-oxa-2λ^6-thia-3,5,12,19-tetrazatricyclo[12.3.1.14,8]nonadeca-1(18),4,6,8(19),14,16-hexaen-13-one]	++ (++ is 30-60%)	
Cc1cccc(C)c1-c1cc2nc(n1)NS(=O)(=O)c1cccc(c1)C(=O)N(Cc1cncc(N3CCC[C@H]3C)n1)[C@H](CC1CCCCC1)CO2 [Compound 1331, (11R)-11-(Cyclohexylmethyl)-6-(2,6-dimethylphenyl)-12-[[6-[(2R)-2-methylpyrrolidin-1-yl]pyrazin-2-yl]methyl]-2,2-dioxo-9-oxa-2^6-thia-3,5,12,19-tetrazatricyclo[12.3.1.14,8]nonadeca-1(18),4(19),5,7,14,16-hexaen-13-one]	+++ (+++ is >60+)	
Cc1cccc(C)c1-c1cc2nc(n1)NS(=O)(=O)c1cccc(c1)C(=O)N(Cc1cncc(N3CCCOC4CCC43)n1)[C@H](CC(C)(C)C)CO2 (stereo partly drawn) [Compound 1332, (11R)-6-(2,6-Dimethylphenyl)-11-(2,2-dimethylpropyl)-12-[[6-(2-oxa-6-azabicyclo[5.2.0]nonan-6-yl)pyrazin-2-yl]methyl]-2,2-dioxo-9-oxa-2λ^6-thia-3,5,12,19-tetrazatricyclo[12.3.1.14,8]nonadeca-1(18),4(19),5,7,14,16-hexaen-13-one]	+++ (+++ is >60+)	
Cc1cccc(C)c1-c1cc2nc(n1)NS(=O)(=O)c1cccc(c1)C(=O)N(Cc1cnc3oc(C(C)C)cc3n1)[C@H](CC(C)(C)C)CO2 [Compound 1333, (11R)-6-(2,6-Dimethylphenyl)-11-(2,2-dimethylpropyl)-12-[(6-isopropylfuro[2,3-b]pyrazin-2-yl)methyl]-2,2-dioxo-9-oxa-2λ6-thia-3,5,12,19-tetrazatricyclo[12.3.1.14,8]nonadeca-1(18),4(19),5,7,14,16-hexaen-13-one]	+++ (+++ is >60+)	
Cc1cccc(C)c1-c1cc2nc(n1)NS(=O)(=O)c1cccc(c1)C(=O)N(Cc1cnc3cc(C(C)C)n(C)c3n1)[C@H](CC1CCCC1)CO2 [Compound 1334, (11R)-11-(Cyclopentylmethyl)-6-(2,6-dimethylphenyl)-12-[(6-isopropyl-5-methyl-pyrrolo[2,3-b]pyrazin-3-yl)methyl]-2,2-dioxo-9-oxa-2λ^6-thia-3,5,12,19-tetrazatricyclo[12.3.1.14,8]nonadeca-1(18),4(19),5,7,14,16-hexaen-13-one]	+++ (+++ is >60+)	
Cc1cccc(C)c1-c1cc2nc(n1)NS(=O)(=O)c1cccc(c1)C(=O)N(Cc1cncc(N(C)C3CCC3)n1)[C@H](CCC1(C)CC1)CO2 [Compound 1336, 12-[[6-[cyclobutyl(methyl)amino]pyrazin-2-yl]methyl]-6-(2,6-dimethylphenyl)-11-[2-(1-methylcyclopropyl)ethyl]-2,2-dioxo-9-oxa-2λ^6-thia-3,5,12,19-tetrazatricyclo[12.3.1.14,8]nonadeca-1(18),4(19),5,7,14,16-hexaen-13-one]	+++ (+++ is >60+)	
Cc1cccc(C)c1-c1cc2nc(n1)NS(=O)(=O)c1cccc(c1)C(=O)N(Cc1cncc(N3CCC[C@H]3C(C)C)n1)[C@H](COC1CC1)CO2 [Compound 1341, (11R)-11-(Cyclopropoxymethyl)-6-(2,6-dimethylphenyl)-12-[[6-[(2S)-2-isopropylpyrrolidin-1-yl]pyrazin-2-yl]methyl]-2,2-dioxo-9-oxa-2^6-thia-3,5,12,19-tetrazatricyclo[12.3.1.14,8]nonadeca-1(18),4(19),5,7,14,16-hexaen-13-one]	+++ (+++ is >60+)	
COCCN(C)c1nc(CN2C(=O)c3cccc(c3)S(=O)(=O)Nc3nc(cc(-c4c(C)cccc4C)n3)OC[C@H]2CC(C)(C)C)co1 [Compound 1409]		HBE2 Activity at 3 μM (%) (3 μM): +++ (+++ is >60+)
Cc1cccc(C)c1-c1cc2nc(n1)NS(=O)(=O)c1cccc(c1)C(=O)N(Cc1cc(C(C)C)n(C)n1)[C@H](CC(C)(C)C)CO2 [Compound 1413]		HBE2 Activity at 3 μM (%) (3 μM): ++ (++ is 30-60%)
COC[C@H]1CCCCN1c1cncc(CN2C(=O)c3cccc(c3)S(=O)(=O)Nc3nc(cc(-c4c(C)cccc4C)n3)OC[C@H]2CC(C)(C)C)n1 [Compound 1539]		EC50: < 1 µM; Emax: > 60%
Cc1cccc(C)c1-c1cc2nc(n1)NS(=O)(=O)c1cccc(c1)C(=O)N(Cc1cncc(N3CC[C@@H]4COC[C@@H]43)n1)[C@H](CC(C)(C)C)CO2 [Compound 1541]		EC50: < 1 µM; Emax: > 60%
